25 compounds from US20050187208A1 (priority 2004, published 2005) can be followed below.

Where a name gives a salt, the structure may show the parent alone.

In general, melting point refers to the temperature of the solid-liquid transition. One may read the inhibition as the relative decrease from the control value, in per cent.

Series [1] concerns cannabinoid receptors. Nature of the series: Mouse tetrad model, antagonistic effect against Win 55212-2. The class given is in vivo. Details: unit not given here. As to conditions: 5 mg/kg i.v. prior to Win 55212-2 1.25 mg/kg i.v.; male NMRI mice. The text has this:
(§1) Substances with affinity for cannabinoid receptors are known to produce a wide range of pharmacological effects. It is also known that intravenous administration of a substance with affinity for cannabinoid receptors in mice produces analgesia, hypothermia, sedation and catalepsy. Individually, none of these effects can be considered as proof that a tested substance has affinity for cannabinoid-receptors, since all of these effects are common for various classes of centrally active agents. However, substances, which show all of these effects, i.e. substances that are active in this so-called tetrad model are considered to have affinity for the cannabinoid receptors. It has further been shown that cannabinoid receptor antagonists are higly effective in blocking the effects of a cannabinoid agonist in the mouse tetrad model.
(§2) The tetrad model is described, for example, in the publication of A. C. Howlett et al, International Union of Pharmacology XXVII. Classification of Cannabinoid Receptors, Pharmacol Rev 54, 161-202, 2002 and David R. Compton et al., “In-vivo Characterization of a Specific Cannabinoid Receptor Antagonist (SR141716A): Inhibition of Tetrahydrocannbinol-induced Responses and Apparent Agonist Activity”, J. Pharmacol. Exp. Ther. 277, 2, 586-594, 1996. The corresponding parts of the description are hereby incorporated by reference.
(§3) Male NMRI mice with a weight of 20-30 g (Harlan, Barcelona, Spain) are used in all of the following experiments.
(§4) Before testing in the behavioral procedures given below, mice are acclimatized to the experimental setting. Pre-Treatment control values are determined for analgesia hot plate latency (in seconds), rectal temperature, sedation and catalepsy.
(§5) In order to determine the agonistic activty of the substance to be tested, the mice are injected intravenously with the substance to be tested or the vehicle alone. 15 minutes after injection, latency in hot plate analgesia is measured. Rectal temperature, sedation and catalepsy are measured 20 minutes after injection.
In order to determine the antagonistic activity the identical procedure is used as for the determination of the agonistic effects, but with the difference that the substance to be evaluated for its antagonistic activity is injectected 5 minutes before the intravenous injection of 1.25 mg/kg Win-55,212 a known cannabinoid-receptor agonist.
(§6) The hot plate analgesia is determined according to the method described in Woolfe D. et al. “The evaluation of analgesic action of pethidine hydrochloride (Demerol)”, J. Pharmacol. Exp. Ther. 80, 300-307, 1944. The respective description is hereby incorporated by reference and forms part of the present disclosure.
(§7) The mice are placed on a hot plate (Harvard Analgesimeter) at 55±0.5° C. until they show a painful sensation by licking their paws or jumping and the time for these sensations to occur is recorded. This reading is considered the basal value (B). The maximum time limit the mice are allowed to remain on the hot plate in absence of any painful response is 40 seconds in order to prevent skin damage. This period is called the cut-off time (PC).
(§8) Fifteen minuts after the administration of the substance to be tested, the mice are again placed on the hot plate and the afore described procedure is repeated. This period is called the post-treatment reading (PT).
(§9) The degree of analgesia is calculated from the formula: % MPE of Analgesia=(PT−B)/(PC−B)×100 • MPE Maximum possible effect. Determination of Sedation and Ataxia
(§10) Sedation and ataxia is determined according to the method described in Desmet L. K. C. et al. “Anticonvulsive properties of.Cinarizine and Flunarizine in Rats and Mice”, Arzneim. -Forsch. (Frug Res) 25, 9, 1975. The respective description is hereby incorporated by reference and forms part of the present disclosure.
The chosen scoring system is • 0: no ataxia; • 1: doubful; • 2: obvious calmness and quiet; • 3 pronounced ataxia; prior to as well as after treatment. […]

Series [2] concerns the target T1, transfected human CB1 receptor (Homo sapiens, UniProt P21554).
T1 construct: purchased Receptor Biology, Inc
Nature of the series: In-vitro determination of affinity to CB1 receptor, radioligand [^3H]-CP55940. The class given is binding. The conditions noted are these: read-out: CB1 Receptor % Inhibition 10^−6 M. The procedure:
I. In-vitro Determination of Affinity to CB1/CB2-Rezeptors
The in-vitro determination of the affinity of the inventive substituted azetidine compounds to CB1/CB2-Receptors is carried out as described in the publication of Ruth A. Ross, Heather C. Brockie et al., “Agonist-inverse agonist characterization at CB1 and CB2 cannabinoid receptors of L-759633, L759656 and AM630”, British Journal of Pharmacology, 126, 665-672, (1999). The respective parts of the descriptions are hereby incorporated by reference and form part of the present disclosure. The transfected human CB1 and CB2 receptor are obtained from Receptor Biology, Inc. The radioligand used for both receptors is [^3H]-CP55940.
The affinity of the inventive substituted azetidine compounds to CB1/CB2 receptors is determined as described above.

The test system of series [3] is cannabinoid receptors. As to the kind of experiment: Mouse tetrad model, agonistic effect (hot plate, hypothermia, catalepsy, sedation). The class given is in vivo. Also on record: key to Agonistic effect A: Hot-Plate test: % MPE = (PT−B)/(PC−B)×100; key to Agonistic effect D: Sedation: % sedation = mean score (0-3)/3×100; Agonistic effect B: Hypothermia: unit not given here. As to conditions: 5 mg/kg i.v., male NMRI mice.
Source text: as §1, §2, §3, §4, §5, §6, §7, §8, §9, §10
The chosen scoring system is • 0: no ataxia; • 1: doubful; • 2: obvious calmness and quiet; • 3 pronounced ataxia; prior to as well as after treatment.
The percentage of sedation is determined according to the formula: % of sedation=arithmetic mean/3×100 Hypothermia: […]

T1 sequence (P21554 whole entry): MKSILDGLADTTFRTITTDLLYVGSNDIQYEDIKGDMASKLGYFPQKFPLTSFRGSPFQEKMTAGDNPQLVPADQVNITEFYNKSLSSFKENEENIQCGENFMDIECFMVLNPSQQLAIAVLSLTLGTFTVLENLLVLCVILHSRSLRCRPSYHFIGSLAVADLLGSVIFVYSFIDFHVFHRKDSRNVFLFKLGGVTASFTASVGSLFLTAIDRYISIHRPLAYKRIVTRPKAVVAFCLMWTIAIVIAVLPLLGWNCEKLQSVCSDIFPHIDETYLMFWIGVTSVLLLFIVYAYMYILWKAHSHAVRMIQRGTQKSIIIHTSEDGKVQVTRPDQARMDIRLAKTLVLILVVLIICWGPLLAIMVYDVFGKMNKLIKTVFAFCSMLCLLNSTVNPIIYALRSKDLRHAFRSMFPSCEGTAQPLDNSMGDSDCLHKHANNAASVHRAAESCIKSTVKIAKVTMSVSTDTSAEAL

Take `Cc1nn(C)c(C)c1S(=O)(=O)N[C@H]1CN(C(c2ccc(Cl)cc2)c2ccc(Cl)cc2)[C@@H]1C`: the melting point lay in the range of 173 to 175 °C.

`C[C@@H]1[C@@H](N(S(=O)(=O)c2ccc(F)cc2)S(=O)(=O)c2ccc(F)cc2)CN1C(c1ccc(Cl)cc1)c1ccc(Cl)cc1` had a melting point of 60 to 64 °C.

As for `C[C@H]1[C@H](NC(=O)C2CCCCC2)CN1C(c1ccc(Cl)cc1)c1ccc(Cl)cc1`, the melting point fell in the range of 65 to 68 °C.

`C[C@H]1[C@H](NC(=O)c2cc(F)cc(F)c2)CN1C(c1ccc(Cl)cc1)c1ccc(Cl)cc1` yielded a melting point of 57 to 60 °C.

On to `C[C@H]1C(NS(=O)(=O)c2ccc(F)cc2)CN1C(c1ccc(Cl)cc1)c1ccc(Cl)cc1` (mixture of isomers), for which the melting point was in the range of 154 to 157 °C.

As to `C[C@@H]1[C@@H](NS(=O)(=O)c2ccc(-c3ccccc3)cc2)CN1C(c1ccc(Cl)cc1)c1ccc(Cl)cc1` (relative stereo), the melting point was in the range of 145 to 148 °C.

`C[C@@H]1[C@@H](NS(=O)(=O)c2c(Cl)nc3sccn23)CN1C(c1ccc(Cl)cc1)c1ccc(Cl)cc1` (relative stereo) registered a melting point of 164 to 169 °C.

`C[C@@H]1[C@@H](OS(=O)(=O)c2ccc(F)cc2)CN1C(c1ccc(Cl)cc1)c1ccc(Cl)cc1` (relative stereo) [Example 1, 4-Fluoro-benzenesulfonic acid-trans-1-[bis-(4-chloro-phenyl)-methyl]-2-methyl-azetidin-3-yl ester] registered a melting point of 105 to 107 °C. Also, in the series on cannabinoid receptors [1], the “Antagonistic Effect A: Hot-Plate test” value is listed as 46 and the “Antagonistic Effect C: Catalepsy” value was found to be 47. Besides, the inhibition at 1 µM in series [2] is 60%.

As to `C[C@@H]1[C@@H](NS(=O)(=O)c2cccc3nsnc23)CN1C(c1ccc(Cl)cc1)c1ccc(Cl)cc1` (relative stereo) [Example 15, 2,1,3-Benzothiadiazole-4-sulfonic acid {trans-1-[bis-(4-chloro-phenyl)-methyl]-2-methyl-azetidin-3-yl}-amide], in the series on cannabinoid receptors [1], the “Antagonistic Effect A: Hot-Plate test” value was determined as 72, the “Antagonistic Effect B: Hypothermia” value amounted to 100, the “Antagonistic Effect C: Catalepsy” value amounted to 57 and the “Antagonistic Effect D: Sedation” value stood at 71. Also, the “Agonistic effect A: Hot-Plate test” value with cannabinoid receptors [3] (15 minutes after injection) came out at 14. Moreover, in the series on cannabinoid receptors [3] (20 minutes after injection), the “Agonistic effect B: Hypothermia” value turned out to be 0, the “Agonistic effect C: Catalepsy” value was found to be 0 and the “Agonistic effect D: Sedation” value worked out at 0. Besides, the inhibition at 1 µM in series [2] was found to be 66%.

The compound `C[C@@H]1[C@@H](NS(=O)(=O)c2cc(Cl)cc(Cl)c2)CN1C(c1ccc(Cl)cc1)c1ccc(Cl)cc1` (relative stereo) [Example 18, N-{trans-1-[Bis-(4-chloro-phenyl)-methyl]-2-methyl-azetidin-3-yl}-3,5-dichloro-benzenesulfonamide] gave a melting point of 144 to 146 °C. Also, the inhibition at 1 µM in series [2] was 95%.

`C[C@@H]1[C@@H](NS(=O)(=O)c2csc3ccccc23)CN1C(c1ccc(Cl)cc1)c1ccc(Cl)cc1` (relative stereo) [Example 25, Benzo[b]thiophene-3-sulfonic acid {trans-1-[bis-(4-chloro-phenyl)-methyl]-2-methyl-azetidin-3-yl}amide]: the melting point was 192 to 197 °C. For the same compound, the inhibition at 1 µM in series [2] stood at 87%.

`C[C@@H]1[C@@H](NS(=O)(=O)c2ccc3ccccc3c2)CN1C(c1ccc(Cl)cc1)c1ccc(Cl)cc1` (stereo in doubt) gave a melting point of 156 to 160 °C.

Compound `CC(=O)c1ccc(S(=O)(=O)N[C@H]2CN(C(c3ccc(Cl)cc3)c3ccc(Cl)cc3)[C@@H]2C)cc1` (stereo in doubt) returned a melting point of 177 to 180 °C.

Take `C[C@@H]1[C@@H](NS(=O)(=O)c2ccc(Oc3ccc(Br)cc3)cc2)CN1C(c1ccc(Cl)cc1)c1ccc(Cl)cc1` (stereo in doubt): the melting point lay within 115 to 119 °C.

In the case of `Cc1c(S(=O)(=O)N[C@H]2CN(C(c3ccc(Cl)cc3)c3ccc(Cl)cc3)[C@@H]2C)sc2ccc(Cl)cc12` (stereo in doubt), the melting point is 105 to 108 °C.

`C[C@@H]1[C@@H](NS(=O)(=O)CCc2cccc3ccccc23)CN1C(c1ccc(Cl)cc1)c1ccc(Cl)cc1` (stereo in doubt) registered a melting point of 123 to 128 °C.

Compound `C[C@@H]1[C@@H](NS(=O)(=O)c2cccc3ccccc23)CN1C(c1ccc(Cl)cc1)c1ccc(Cl)cc1` (stereo in doubt) showed a melting point of 171 to 174 °C.

Take `C[C@@H]1[C@@H](NS(=O)(=O)c2ccc(Oc3ccccc3)cc2)CN1C(c1ccc(Cl)cc1)c1ccc(Cl)cc1` (stereo in doubt): the melting point fell in the range of 160 to 162 °C.

Consider `Cc1c(S(=O)(=O)N[C@H]2CN(C(c3ccc(Cl)cc3)c3ccc(Cl)cc3)[C@@H]2C)cnn1-c1ccccc1` (stereo in doubt), for which the melting point lay within 173 to 176 °C.

`C[C@@H]1C(N(C)S(=O)(=O)c2ccc(F)cc2)CN1C(c1ccc(Cl)cc1)c1ccc(Cl)cc1` (stereo in doubt) came in with a melting point of 182 to 186 °C.

The compound `C[C@@H]1[C@@H](N(Cc2ccc(F)cc2)S(=O)(=O)c2ccc(F)cc2)CN1C(c1ccc(Cl)cc1)c1ccc(Cl)cc1` (stereo in doubt) gave a melting point of 75 to 78 °C.

`CCCN([C@H]1CN(C(c2ccc(Cl)cc2)c2ccc(Cl)cc2)[C@@H]1C)S(=O)(=O)c1ccc(F)cc1` (stereo in doubt) came in with a melting point of 91 to 97 °C.

For `C[C@H]1[C@H](N)CN1C(c1ccc(Cl)cc1)c1ccc(Cl)cc1` (stereo in doubt), the melting point is 134 to 136 °C.

Compound `C[C@H]1[C@H](NC(=O)C(F)(F)F)CN1C(c1ccc(Cl)cc1)c1ccc(Cl)cc1` (stereo in doubt) (as salt: TFA) came in with a melting point of 122 to 127 °C.

In turn, `C[C@@H]1[C@@H](NS(=O)(=O)c2ccc(F)cc2)CN1C(c1ccc(Cl)cc1)c1ccc(Cl)cc1` [Example 33, N-{(2R,3S)-1-[Bis-(4-chloro-phenyl)-methyl]-2-methyl-azetidin-3-yl}-4-fluoro-benzenesulfonamide] registered a melting point of 154 to 158 °C. For the same compound, in series [2], the inhibition at 1 µM was 71%.
